Laboratory results as given in PubChem BioAssay AID1963447 (Molecular Pharmacology Branch, DTP, NCI, 2024).

System: 885512-296-R-J2-PDC complex spheroid growth, % test/control
Test: Anticancer human tumor 885512-296-R-J2-PDC patient-derived breast carcinoma cell line growth inhibition [Asc]
Conditions: for IC50: curve of first compound; for viability, T/C: stronger effect = lower value
Summary of the method: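 Complex solid-tumor spheroids incorporating human endothelial and mesenchymal stem cells received single agents or combinations over half-log dilution ranges anchored to clinical Cmax.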
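Further: spheroids exposed to compounds for seven days.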
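Wherever viability, T/C is given: 100% = DMSO vehicle control wells.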

`Cc1nc(N2CCC3(CC2)COC(C)C3N)c(CO)nc1Sc1ccnc(N)c1Cl` (stereo not given) + CCN1C(C(=O)NC23CCC(C(=O)O)(CC2)CC3)C(c2cccc(Cl)c2F)C2(C(=O)Nc3cc(Cl)ccc32)C12CCCCC2 was tested. Which IC50 (second compound 0.03 µM) did it give?
The IC50 was 361 nM.

And the IC50 (second compound 0.0949 µM)?
The IC50 was 134 nM.

And the IC50 (second compound 0.3 µM)?
The IC50 was 165 nM.

And the IC50 (second compound 0.949 µM)?
Its IC50 is 59.8 nM.

What about the IC50 (second compound 3 µM) of the same molecule?
The IC50 was under 9.49 nM.

And the viability, T/C (second compound 0.03 µM, first compound 0.00949 µM)?
The viability, T/C was 90.6%.

And the viability, T/C (second compound 0.03 µM, first compound 0.03 µM)?
The viability, T/C was 79%.

And the viability, T/C (second compound 0.03 µM, first compound 0.0949 µM)?
Its viability, T/C is 59.8%.

What about the viability, T/C (second compound 0.03 µM, first compound 0.3 µM) of the same molecule?
The viability, T/C was 51.6%.

What about the viability, T/C (second compound 0.03 µM, first compound 0.949 µM) of the same molecule?
The viability, T/C was 45.2%.

What about the viability, T/C (second compound 0.03 µM, first compound 3 µM) of the same molecule?
The viability, T/C was 35.4%.

What about the viability, T/C (second compound 0.0949 µM, first compound 0.00949 µM) of the same molecule?
Its viability, T/C is 96.5%.

What about the viability, T/C (second compound 0.0949 µM, first compound 0.03 µM) of the same molecule?
Its viability, T/C is 78.9%.

And the viability, T/C (second compound 0.0949 µM, first compound 0.0949 µM)?
Its viability, T/C is 51.2%.

And the viability, T/C (second compound 0.0949 µM, first compound 0.3 µM)?
Its viability, T/C is 45.4%.

And the viability, T/C (second compound 0.0949 µM, first compound 0.949 µM)?
Its viability, T/C is 41.3%.

And the viability, T/C (second compound 0.0949 µM, first compound 3 µM)?
The viability, T/C was 35.5%.

What about the viability, T/C (second compound 0.3 µM, first compound 0.00949 µM) of the same molecule?
The viability, T/C was 82.3%.

What about the viability, T/C (second compound 0.3 µM, first compound 0.03 µM) of the same molecule?
Its viability, T/C is 60.2%.

And the viability, T/C (second compound 0.3 µM, first compound 0.0949 µM)?
Its viability, T/C is 51.6%.

And the viability, T/C (second compound 0.3 µM, first compound 0.3 µM)?
Its viability, T/C is 53.1%.

What about the viability, T/C (second compound 0.3 µM, first compound 0.949 µM) of the same molecule?
Its viability, T/C is 42.8%.

What about the viability, T/C (second compound 0.3 µM, first compound 3 µM) of the same molecule?
The viability, T/C was 36.9%.

And the viability, T/C (second compound 0.949 µM, first compound 0.00949 µM)?
The viability, T/C was 59.3%.

What about the viability, T/C (second compound 0.949 µM, first compound 0.03 µM) of the same molecule?
The viability, T/C was 51.1%.

What about the viability, T/C (second compound 0.949 µM, first compound 0.0949 µM) of the same molecule?
Its viability, T/C is 46.9%.

And the viability, T/C (second compound 0.949 µM, first compound 0.3 µM)?
Its viability, T/C is 46.2%.

And the viability, T/C (second compound 0.949 µM, first compound 0.949 µM)?
Its viability, T/C is 39.1%.

What about the viability, T/C (second compound 0.949 µM, first compound 3 µM) of the same molecule?
Its viability, T/C is 35.2%.

And the viability, T/C (second compound 3 µM, first compound 0.00949 µM)?
The viability, T/C was 39.3%.

What about the viability, T/C (second compound 3 µM, first compound 0.03 µM) of the same molecule?
The viability, T/C was 35%.

And the viability, T/C (second compound 3 µM, first compound 0.0949 µM)?
Its viability, T/C is 28.1%.

What about the viability, T/C (second compound 3 µM, first compound 0.3 µM) of the same molecule?
The viability, T/C was 32%.

What about the viability, T/C (second compound 3 µM, first compound 0.949 µM) of the same molecule?
Its viability, T/C is 30.3%.

What about the viability, T/C (second compound 3 µM, first compound 3 µM) of the same molecule?
The viability, T/C was 27.1%.

Which results are given for `C=CC(=O)N1CCN(c2nc(=O)n(-c3c(C)ccnc3C(C)C)c3nc(-c4c(O)cccc4F)c(F)cc23)C(C)C1` (stereo not given) + CCN1C(C(=O)NC23CCC(C(=O)O)(CC2)CC3)C(c2cccc(Cl)c2F)C2(C(=O)Nc3cc(Cl)ccc32)C12CCCCC2?
IC50 (second compound 0.03 µM): > 10000 nM; IC50 (second compound 0.0949 µM): > 10000 nM; IC50 (second compound 0.3 µM): > 10000 nM; IC50 (second compound 0.949 µM): > 10000 nM; IC50 (second compound 3 µM): < 31.6 nM; viability, T/C (second compound 0.03 µM, first compound 0.0316 µM): 93.7%; viability, T/C (second compound 0.03 µM, first compound 0.1 µM): 96.8%; viability, T/C (second compound 0.03 µM, first compound 0.316 µM): 111%; viability, T/C (second compound 0.03 µM, first compound 1 µM): 112%; viability, T/C (second compound 0.03 µM, first compound 3.16 µM): 101%; viability, T/C (second compound 0.03 µM, first compound 10 µM): 61.3%; viability, T/C (second compound 0.0949 µM, first compound 0.0316 µM): 73.5%; viability, T/C (second compound 0.0949 µM, first compound 0.1 µM): 108%; viability, T/C (second compound 0.0949 µM, first compound 0.316 µM): 114%; viability, T/C (second compound 0.0949 µM, first compound 1 µM): 108%; viability, T/C (second compound 0.0949 µM, first compound 3.16 µM): 96.3%; viability, T/C (second compound 0.0949 µM, first compound 10 µM): 64%; viability, T/C (second compound 0.3 µM, first compound 0.0316 µM): 89.8%; viability, T/C (second compound 0.3 µM, first compound 0.1 µM): 88.3%; viability, T/C (second compound 0.3 µM, first compound 0.316 µM): 117%; viability, T/C (second compound 0.3 µM, first compound 1 µM): 95.3%; viability, T/C (second compound 0.3 µM, first compound 3.16 µM): 101%; viability, T/C (second compound 0.3 µM, first compound 10 µM): 72%; viability, T/C (second compound 0.949 µM, first compound 0.0316 µM): 68.7%; viability, T/C (second compound 0.949 µM, first compound 0.1 µM): 71.2%; viability, T/C (second compound 0.949 µM, first compound 0.316 µM): 70%; viability, T/C (second compound 0.949 µM, first compound 1 µM): 86.9%; viability, T/C (second compound 0.949 µM, first compound 3.16 µM): 91.8%; viability, T/C (second compound 0.949 µM, first compound 10 µM): 61%; viability, T/C (second compound 3 µM, first compound 0.0316 µM): 38.8%; viability, T/C (second compound 3 µM, first compound 0.1 µM): 52.6%; viability, T/C (second compound 3 µM, first compound 0.316 µM): 46.4%; viability, T/C (second compound 3 µM, first compound 1 µM): 61.1%; viability, T/C (second compound 3 µM, first compound 3.16 µM): 58.5%; viability, T/C (second compound 3 µM, first compound 10 µM): 52.2%
